The subject of assay [1] is Paracentrotus lividus. The assay can be described thus: Antimitotic microtubule destabilizing activity in Paracentrotus lividus L embryos assessed as induction of cleavage arrest.
The test system of assay [2] is Paracentrotus lividus. The assay can be described thus: Antimitotic microtubule destabilizing activity in Paracentrotus lividus L embryos assessed as induction of embryo spinning.
For assay [3], the system named is Paracentrotus lividus. Briefly: Antimitotic microtubule destabilizing activity in Paracentrotus lividus L embryos assessed as induction of cleavage alteration.
Assay [4] in a line: Cytotoxicity against human NCI60 cells assessed as mean cell growth at 10 uM. In kind it is functional.
Assay [5] in a line: Cytotoxicity against human NCI60 cells. In kind it is functional.

Bounds are passed on as bounds.

As for `COc1cc(C2C(C#N)=C(N)Oc3cc(O)ccc32)cc2c1OCO2` (centres undefined), the EC in the assay on Paracentrotus lividus [1] was 4 µM; in the assay on Paracentrotus lividus [2] it was 10 µM; in the assay with Paracentrotus lividus [3], 0.5 µM.

As to `COc1cc(C2C(C#N)=C(N)Oc3cc(O)ccc32)cc2c1OCCO2` (centres undefined), the EC with Paracentrotus lividus [1] is 4 µM; with Paracentrotus lividus [2], > 5 µM; in the assay on Paracentrotus lividus [3], 1 µM.

In the case of `COc1ccc(C2C(C#N)=C(N)Oc3cc(O)ccc32)cc1OC` (centres undefined), the EC in the assay on Paracentrotus lividus [1], with Paracentrotus lividus [2] and in the assay on Paracentrotus lividus [3] was > 4 µM in each case. Further, the Activity in assay [4] is recorded as 99.4%.

Consider `COc1ccc(C2C(C#N)=C(N)Oc3cc(O)ccc32)c(OC)c1` (centres undefined), for which the EC in the assay with Paracentrotus lividus [1], in the assay with Paracentrotus lividus [2] and with Paracentrotus lividus [3] was > 4 µM in each case.

With `COc1cc(OC)c(C2C(C#N)=C(N)Oc3cc(O)ccc32)c(OC)c1` (centres undefined), the EC with Paracentrotus lividus [1] and in the assay on Paracentrotus lividus [2] was > 4 µM each time.

For `N#CC1=C(N)Oc2cc(O)ccc2C1c1ccccc1F` (centres undefined), the EC in the assay with Paracentrotus lividus [1] was 4 µM; in the assay with Paracentrotus lividus [2] it was > 5 µM; in the assay with Paracentrotus lividus [3], 1 µM.

As for `COc1cccc([C@@H]2C(C#N)=C(N)Oc3cc(OC)ccc32)c1`, the EC with Paracentrotus lividus [1] was found to be 0.5 µM; with Paracentrotus lividus [2], 4 µM; in the assay on Paracentrotus lividus [3] it was 0.05 µM.

On to `COc1ccc(C2C(C#N)=C(N)Oc3cc(O)ccc32)cc1` (centres undefined), for which the EC in the assay with Paracentrotus lividus [1], in the assay with Paracentrotus lividus [2] and in the assay with Paracentrotus lividus [3] was > 4 µM throughout. For the same compound, the Activity in assay [4] worked out at 96%.

Regarding `COc1ccc2c(c1)OC(N)=C(C#N)C2c1cc(N)c2c(c1)OCCO2` (centres undefined), the EC with Paracentrotus lividus [1] is 0.5 µM; in the assay with Paracentrotus lividus [2], 5 µM; in the assay with Paracentrotus lividus [3], 0.1 µM.

As for `COc1ccccc1C1C(C#N)=C(N)Oc2cc(O)ccc21` (centres undefined), the results for the EC with Paracentrotus lividus [1], in the assay with Paracentrotus lividus [2] and with Paracentrotus lividus [3] were > 4 µM, > 5 µM and 0.5 µM, respectively.

For the compound `COc1cc(C2C(C#N)=C(N)Oc3cc(O)ccc32)c(OC)c(OC)c1OC` (centres undefined), the EC with Paracentrotus lividus [1], with Paracentrotus lividus [2] and in the assay with Paracentrotus lividus [3] was > 4 µM throughout.

For `COc1ccc2c(c1)OC(N)=C(C#N)C2c1cc(OC)c2c(c1)OCO2` (centres undefined), the EC worked out at 0.02 µM in the assay on Paracentrotus lividus [1], 0.05 µM with Paracentrotus lividus [2] and 0.005 µM in the assay with Paracentrotus lividus [3].

As for `COc1ccc2c(c1)OC(N)=C(C#N)[C@@H]2c1cc(OC)c(OC)c(OC)c1`, the EC in the assay on Paracentrotus lividus [1] was found to be 0.04 µM; in the assay on Paracentrotus lividus [2], 0.2 µM; in the assay with Paracentrotus lividus [3] it was 0.005 µM.

For the compound `COc1cccc([C@H]2C(C#N)=C(N)Oc3cc(OC)ccc32)c1`, the EC in the assay with Paracentrotus lividus [1] turned out to be 0.01 µM; with Paracentrotus lividus [2] it was 0.05 µM; in the assay with Paracentrotus lividus [3], 0.001 µM.

`COc1cc([C@@H]2c3cc4c(cc3[C@H](O)[C@H]3COC(=O)[C@H]23)OCO4)cc(OC)c1OC` [PODOFILOX]: the values for the EC in the assay with Paracentrotus lividus [1], in the assay on Paracentrotus lividus [2] and in the assay with Paracentrotus lividus [3] were 0.05 µM, 0.5 µM and 0.02 µM, respectively. In assay [5], this compound gave a GI50 of 0.021 µM.

In the case of `COc1cc(C2C(C#N)=C(N)Oc3cc4c(cc32)OCO4)cc2c1OCO2` (centres undefined), the EC worked out at 0.05 µM in the assay with Paracentrotus lividus [1], 0.2 µM in the assay with Paracentrotus lividus [2] and 0.005 µM in the assay with Paracentrotus lividus [3]. In assay [5], this compound yielded a concentration for 50% growth inhibition (GI50) of 0.389 µM.

`CCOc1ccccc1C1C(C#N)=C(N)Oc2cc(OC)ccc21` (centres undefined): the EC was determined as 0.2 µM with Paracentrotus lividus [1], 0.5 µM in the assay with Paracentrotus lividus [2] and 0.02 µM in the assay on Paracentrotus lividus [3].

As for `COc1ccc(C2C(C#N)=C(N)Oc3cc(O)ccc32)c(OC)c1OC` (centres undefined), the EC with Paracentrotus lividus [1], with Paracentrotus lividus [2] and with Paracentrotus lividus [3] was > 4 µM each time.

As for `COc1ccc2c(c1)OC(N)=C(C#N)C2c1ccc(OC)c(OC)c1` (centres undefined), the EC in the assay on Paracentrotus lividus [1] came to 0.2 µM; with Paracentrotus lividus [2] it was 1 µM; with Paracentrotus lividus [3] it was 0.05 µM.

Consider `COc1ccc2c(c1)OC(N)=C(C#N)C2c1cc(OC)c2c(c1)OCCO2` (centres undefined), for which the results for the EC in the assay with Paracentrotus lividus [1], in the assay with Paracentrotus lividus [2] and with Paracentrotus lividus [3] were 0.02 µM, 0.1 µM and 0.005 µM, respectively.

With `COc1ccc2c(c1)OC(N)=C(C#N)[C@H]2c1cc(OC)c(OC)c(OC)c1`, the results for the EC in the assay with Paracentrotus lividus [1], with Paracentrotus lividus [2] and in the assay with Paracentrotus lividus [3] were > 4 µM, > 5 µM and 2 µM, respectively.

With `COc1cccc(C2C(C#N)=C(N)Oc3cc(O)ccc32)c1OC` (centres undefined), the EC in the assay on Paracentrotus lividus [1], with Paracentrotus lividus [2] and with Paracentrotus lividus [3] was > 4 µM throughout.

Turning to `COc1ccc2c(c1)OC(N)=C(C#N)C2c1cccc(OC)c1OC` (centres undefined), the EC in the assay on Paracentrotus lividus [1] came out at 2 µM; in the assay on Paracentrotus lividus [2], 4 µM; in the assay with Paracentrotus lividus [3], 0.2 µM.

For `N#CC1=C(N)Oc2cc(O)ccc2C1c1ccccc1I` (centres undefined), the figures for the EC in the assay on Paracentrotus lividus [1], in the assay on Paracentrotus lividus [2] and in the assay with Paracentrotus lividus [3] were > 4 µM, > 4 µM and 4 µM, respectively.

Take `COc1ccc(C2C(C#N)=C(N)Oc3cc(OC)ccc32)cc1` (centres undefined): the EC with Paracentrotus lividus [1] is 1 µM; with Paracentrotus lividus [2] it was > 5 µM; in the assay with Paracentrotus lividus [3], 0.1 µM.

On to `COc1ccc2c(c1)OC(N)=C(C#N)C2c1cc(OC)c2c(c1OC)OCO2` (centres undefined), for which the results for the EC in the assay with Paracentrotus lividus [1], with Paracentrotus lividus [2] and in the assay with Paracentrotus lividus [3] were 1 µM, 4 µM and 0.1 µM, respectively.

Take `N#CC1=C(N)Oc2cc(O)ccc2C1c1ccccc1` (centres undefined): the EC in the assay with Paracentrotus lividus [1] is 2 µM; in the assay on Paracentrotus lividus [2], > 5 µM; in the assay with Paracentrotus lividus [3], 0.5 µM.

Take `COc1cccc(C2C(C#N)=C(N)Oc3cc(O)ccc32)c1` (centres undefined): the EC was 2 µM in the assay with Paracentrotus lividus [1], > 5 µM with Paracentrotus lividus [2] and 0.1 µM in the assay with Paracentrotus lividus [3].

In the case of `COc1ccc(OC)c(C2C(C#N)=C(N)Oc3cc(O)ccc32)c1` (centres undefined), the EC in the assay on Paracentrotus lividus [1] was > 4 µM; in the assay on Paracentrotus lividus [2] it was > 4 µM; in the assay on Paracentrotus lividus [3] it was 1 µM. The Activity in assay [4] came to 94.5%.

For `N#CC1=C(N)Oc2cc(O)ccc2C1c1cc2c(c([N+](=O)[O-])c1)OCCO2` (centres undefined), the EC is > 4 µM with Paracentrotus lividus [1], > 4 µM with Paracentrotus lividus [2] and 4 µM in the assay on Paracentrotus lividus [3]. In assay [5], this compound came in with a GI50 of 99.3 µM.

On to `COc1ccc2c(c1)OC(N)=C(C#N)C2c1cc2c(c([N+](=O)[O-])c1)OCCO2` (centres undefined), for which the EC in the assay on Paracentrotus lividus [1] was determined as 0.1 µM; with Paracentrotus lividus [2], 1 µM; in the assay on Paracentrotus lividus [3], 0.02 µM.

As to `COc1ccc(C2C(C#N)=C(N)Oc3cc(OC)ccc32)c(OC)c1` (centres undefined), the EC was 1 µM in the assay with Paracentrotus lividus [1], 4 µM in the assay with Paracentrotus lividus [2] and 0.1 µM with Paracentrotus lividus [3].

For `COc1c(C2C(C#N)=C(N)Oc3cc(O)ccc32)cc2c(c1OC)OCO2` (centres undefined), the EC in the assay on Paracentrotus lividus [1] is > 4 µM; in the assay on Paracentrotus lividus [2], > 4 µM; in the assay with Paracentrotus lividus [3], 4 µM.

For the origin of these results see ChEMBL document CHEMBL3352739, “Comparative in vivo evaluation of polyalkoxy substituted 4H-chromenes and oxa-podophyllotoxins as microtubule destabilizing agents in the phenotypic sea urchin embryo assay” (2014).
